Measured values: US20200360352A1, “USE OF RIFAMYCIN-NITROIMIDAZOLE COUPLING MOLECULE” (priority 2019, published 2020)
Values after ≈ are worked out from the molar mass of the structure shown. Like-named read-outs stand apart in the source and are kept apart here.

How the values were obtained:
Type in all cases: cell-based
[1] = system: Mycobacterium avium; test: MBC, plating of MIC wells and CFU count; conditions: read-out: Minimum Bactericidal Concentration (MBC)
[2] = system: Mycobacterium kansasii; test: MBC, plating of MIC wells and CFU count; conditions: read-out: Minimum Bactericidal Concentration (MBC)
[3] = system: Mycobacterium avium; test: MIC, micro broth dilution with resazurin readout; conditions: read-out: Minimum Inhibitory Concentration (MIC)
[4] = system: Mycobacterium kansasii; test: MIC, micro broth dilution with resazurin readout; conditions: read-out: Minimum Inhibitory Concentration (MIC)
[5] = system: Mycodacterium chelonei; test: MIC, micro broth dilution with resazurin readout; conditions: MH Culture Medium; Chelonei (standard strain); read-out: Minimum Inhibitory Concentration (MIC)
[6] = system: Mycobacterium fortuitum; test: MIC, micro broth dilution with resazurin readout; conditions: Mycolicibacterium fortuitum, MH Culture Medium, read-out: Minimum Inhibitory Concentration (MIC)
[7] = system: Mycobacterium abscessus; test: MBC, plating of MIC wells and CFU count; conditions: Mycobacteroides abscessus, read-out: Minimum Bactericidal Concentration (MBC)
[8] = system: Mycobacterium massiliense; test: MIC, micro broth dilution with resazurin readout; conditions: Mycobacteroides abscessus, MH Culture Medium, read-out: Minimum Inhibitory Concentration (MIC)
[9] = system: Mycobacterium intracellulare; test: MIC, micro broth dilution with resazurin readout; conditions: MH Culture Medium, read-out: Minimum Inhibitory Concentration (MIC)
[10] = system: Mycobacterium abscessus; test: MIC, micro broth dilution with resazurin readout; conditions: Mycobacteroides abscessus, read-out: Minimum Inhibitory Concentration (MIC)
[11] = 7H9 Broth, Mycobacterium avium Rough
[12] = 7H9 Broth, Mycobacterium avium Smooth
[13] = MH Broth, Mycobacterium avium Rough
[14] = MH Broth, Mycobacterium avium Smooth
[15] = MH Culture Medium, Avium (standard strain)
[16] = MH Culture Medium, clinically isolated strain Avium (S31)
[17] = MH Culture Medium, clinically isolated strain Avium (S123)
[18] = MH Culture Medium, clinically isolated strain Avium (S559)
[19] = MH Culture Medium, clinically isolated strain Avium (S568)
[20] = MH Culture Medium, clinically isolated strain Avium (S577)
[21] = MH Culture Medium, clinically isolated strain Avium (S597)
[22] = MH Culture Medium, clinically isolated strain Avium (S602)
[23] = MH Culture Medium, Kansasii (standard strain)
[24] = MH Culture Medium, clinically isolated strain Kansasii (S9)
[25] = MH Culture Medium, clinically isolated strain Kansasii (S199)
[26] = MH Culture Medium, clinically isolated strain Kansasii (S520)
[27] = MH Culture Medium, clinically isolated strain Kansasii (S609)
[28] = clinically isolated strain Fortuitum (S103)
[29] = clinically isolated strain Fortuitum (S111)
[30] = clinically isolated strain Massiliense (D10)
[31] = clinically isolated strain Massiliense (D14)
[32] = clinically isolated strain Massiliense (D18)
[33] = Intracellulare (standard strain)
[34] = clinically isolated strain Intracellulare (S90)
[35] = clinically isolated strain Intracellulare (S261)
[36] = clinically isolated strain Intracellulare (S269)
[37] = clinically isolated strain Intracellulare (S290)
[38] = clinically isolated strain Intracellulare (S291)
[39] = clinically isolated strain Intracellulare (S298)
[40] = clinically isolated strain Intracellulare (S442)
[41] = clinically isolated strain Intracellulare (S541)
[42] = clinically isolated strain Intracellulare (S623)
[43] = clinically isolated strain Intracellulare (ZPS)

CC[C@H]1OC(=O)[C@H](C)[C@@H](O[C@H]2C[C@@](C)(OC)[C@@H](O)[C@H](C)O2)[C@H](C)[C@@H](O[C@@H]2O[C@H](C)C[C@H](N(C)C)[C@H]2O)[C@](C)(OC)C[C@@H](C)C(=O)[C@H](C)[C@@H](O)[C@]1(C)O [Clarithromycin]
MBC [1, 11]: > 64 µg/mL
MBC [1, 12]: > 64 µg/mL
MBC [1, 13]: > 64 µg/mL
MBC [1, 14]: > 64 µg/mL
MBC ([2]; 7H9 Broth): 64 µg/mL (≈ 85.6 µM)
MBC ([2]; MH Broth): > 64 µg/mL
MIC [3, 11]: > 64 µg/mL
MIC [3, 12]: 32 µg/mL (≈ 42.8 µM)
MIC [3, 13]: > 64 µg/mL
MIC [3, 14]: > 64 µg/mL
MIC [3, 15]: 0.0625 µg/mL (≈ 0.0836 µM)
MIC [3, 16]: 0.125 µg/mL (≈ 0.167 µM)
MIC [3, 17]: 0.5 µg/mL (≈ 0.668 µM)
MIC [3, 18]: 0.25 µg/mL (≈ 0.334 µM)
MIC [3, 19]: 4 µg/mL (≈ 5.35 µM)
MIC [3, 20]: 0.25 µg/mL (≈ 0.334 µM)
MIC [3, 21]: 1 µg/mL (≈ 1.34 µM)
MIC [3, 22]: 1 µg/mL (≈ 1.34 µM)
MIC ([4]; 7H9 Broth): 2 µg/mL (≈ 2.67 µM)
MIC ([4]; MH Broth): 2 µg/mL (≈ 2.67 µM)
MIC [4, 23]: 0.0625 µg/mL (≈ 0.0836 µM)
MIC [4, 24]: 0.125 µg/mL (≈ 0.167 µM)
MIC [4, 25]: 0.0625 µg/mL (≈ 0.0836 µM)
MIC [4, 26]: 0.0625 µg/mL (≈ 0.0836 µM)
MIC [4, 27]: 0.125 µg/mL (≈ 0.167 µM)
MIC [5]: 0.5 µg/mL (≈ 0.668 µM)
MIC ([6]; Fortuitum (standard strain)): 32 µg/mL (≈ 42.8 µM)
MIC [6, 28]: > 64 µg/mL
MIC [6, 29]: 2 µg/mL (≈ 2.67 µM)
MBC ([7]; 7H9 Broth): > 64 µg/mL
MBC ([7]; MH Broth): > 64 µg/mL
MIC [8, 30]: 0.25 µg/mL (≈ 0.334 µM)
MIC [8, 31]: 0.0625 µg/mL (≈ 0.0836 µM)
MIC [8, 32]: 0.0625 µg/mL (≈ 0.0836 µM)
MIC [9, 33]: 0.0625 µg/mL (≈ 0.0836 µM)
MIC [9, 34]: 1 µg/mL (≈ 1.34 µM)
MIC [9, 35]: 1 µg/mL (≈ 1.34 µM)
MIC [9, 36]: 1 µg/mL (≈ 1.34 µM)
MIC [9, 37]: 1 µg/mL (≈ 1.34 µM)
MIC [9, 38]: 1 µg/mL (≈ 1.34 µM)
MIC [9, 39]: 2 µg/mL (≈ 2.67 µM)
MIC [9, 40]: 2 µg/mL (≈ 2.67 µM)
MIC [9, 41]: 64 µg/mL (≈ 85.6 µM)
MIC [9, 42]: 4 µg/mL (≈ 5.35 µM)
MIC [9, 43]: 1 µg/mL (≈ 1.34 µM)
MIC ([10]; 7H9 Broth): 16 µg/mL (≈ 21.4 µM)
MIC ([10]; MH Broth): 64 µg/mL (≈ 85.6 µM)

COc1c(N2C[C@@H]3CCCN[C@@H]3C2)c(F)cc2c(=O)c(C(=O)O)cn(C3CC3)c12 [Moxifloxacin]
MIC [3, 15]: 1 µg/mL (≈ 2.49 µM)
MIC [3, 16]: 8 µg/mL (≈ 19.9 µM)
MIC [3, 17]: 0.5 µg/mL (≈ 1.25 µM)
MIC [3, 18]: 1 µg/mL (≈ 2.49 µM)
MIC [3, 19]: 0.5 µg/mL (≈ 1.25 µM)
MIC [3, 20]: 0.5 µg/mL (≈ 1.25 µM)
MIC [3, 21]: 2 µg/mL (≈ 4.98 µM)
MIC [3, 22]: 4 µg/mL (≈ 9.96 µM)
MIC [4, 23]: 0.0625 µg/mL (≈ 0.156 µM)
MIC [4, 24]: 0.0625 µg/mL (≈ 0.156 µM)
MIC [4, 25]: 0.0625 µg/mL (≈ 0.156 µM)
MIC [4, 26]: 0.0625 µg/mL (≈ 0.156 µM)
MIC [4, 27]: 0.0625 µg/mL (≈ 0.156 µM)
MIC [5]: 4 µg/mL (≈ 9.96 µM)
MIC ([6]; Fortuitum (standard strain)): 1 µg/mL (≈ 2.49 µM)
MIC [6, 28]: 1 µg/mL (≈ 2.49 µM)
MIC [6, 29]: 0.5 µg/mL (≈ 1.25 µM)
MIC [8, 30]: 32 µg/mL (≈ 79.7 µM)
MIC [8, 31]: 32 µg/mL (≈ 79.7 µM)
MIC [8, 32]: 8 µg/mL (≈ 19.9 µM)
MIC [9, 33]: 0.25 µg/mL (≈ 0.623 µM)
MIC [9, 34]: 2 µg/mL (≈ 4.98 µM)
MIC [9, 35]: 2 µg/mL (≈ 4.98 µM)
MIC [9, 36]: 2 µg/mL (≈ 4.98 µM)
MIC [9, 37]: 2 µg/mL (≈ 4.98 µM)
MIC [9, 38]: 1 µg/mL (≈ 2.49 µM)
MIC [9, 39]: 2 µg/mL (≈ 4.98 µM)
MIC [9, 40]: 2 µg/mL (≈ 4.98 µM)
MIC [9, 41]: 64 µg/mL (≈ 159 µM)
MIC [9, 42]: 2 µg/mL (≈ 4.98 µM)
MIC [9, 43]: 1 µg/mL (≈ 2.49 µM)

CO[C@H]1/C=C/O[C@@]2(C)Oc3c(C)c(O)c4c(c3C2=O)C2=NC3(CCN(CC(C)C)CC3)NC2=C(NC(=O)/C(C)=C\C=C\[C@H](C)[C@H](O)[C@@H](C)[C@@H](O)[C@@H](C)[C@H](OC(C)=O)[C@@H]1C)C4=O [Rifabutin]
MIC [3, 15]: 0.0625 µg/mL (≈ 0.0738 µM)
MIC [3, 16]: 0.0625 µg/mL (≈ 0.0738 µM)
MIC [3, 17]: 0.0625 µg/mL (≈ 0.0738 µM)
MIC [3, 18]: 0.0625 µg/mL (≈ 0.0738 µM)
MIC [3, 19]: 0.0625 µg/mL (≈ 0.0738 µM)
MIC [3, 20]: 0.0625 µg/mL (≈ 0.0738 µM)
MIC [3, 21]: 0.0625 µg/mL (≈ 0.0738 µM)
MIC [3, 22]: 0.0625 µg/mL (≈ 0.0738 µM)
MIC [4, 23]: 0.0625 µg/mL (≈ 0.0738 µM)
MIC [4, 24]: 0.0625 µg/mL (≈ 0.0738 µM)
MIC [4, 25]: 0.0625 µg/mL (≈ 0.0738 µM)
MIC [4, 26]: 0.0625 µg/mL (≈ 0.0738 µM)
MIC [4, 27]: 0.0625 µg/mL (≈ 0.0738 µM)
MIC [5]: 64 µg/mL (≈ 75.6 µM)
MIC ([6]; Fortuitum (standard strain)): 4 µg/mL (≈ 4.72 µM)
MIC [6, 28]: 32 µg/mL (≈ 37.8 µM)
MIC [6, 29]: 4 µg/mL (≈ 4.72 µM)
MIC [8, 30]: > 64 µg/mL
MIC [8, 31]: 64 µg/mL (≈ 75.6 µM)
MIC [8, 32]: 64 µg/mL (≈ 75.6 µM)
MIC [9, 33]: 0.0625 µg/mL (≈ 0.0738 µM)
MIC [9, 34]: 0.125 µg/mL (≈ 0.148 µM)
MIC [9, 35]: 0.25 µg/mL (≈ 0.295 µM)
MIC [9, 36]: 0.0625 µg/mL (≈ 0.0738 µM)
MIC [9, 37]: 0.0625 µg/mL (≈ 0.0738 µM)
MIC [9, 38]: 0.0625 µg/mL (≈ 0.0738 µM)
MIC [9, 39]: 0.5 µg/mL (≈ 0.59 µM)
MIC [9, 40]: 0.0625 µg/mL (≈ 0.0738 µM)
MIC [9, 41]: 0.125 µg/mL (≈ 0.148 µM)
MIC [9, 42]: 0.25 µg/mL (≈ 0.295 µM)
MIC [9, 43]: 0.0625 µg/mL (≈ 0.0738 µM)
